Values after ≈ are worked out from the molar mass of the structure shown.
Legend:
[1] = Vasodilatory activity in rabbit coronary artery assessed as inhibition of KCl-induced contraction; format: functional, tissue-based, Oryctolagus cuniculus
[2] = tested on: L1210; experiment: Cytotoxicity against mouse L1210 cells; format: functional, cell-based
[3] = tested on: L5178Y; experiment: Cytotoxicity against mouse L5178Y cells; format: functional, cell-based

IC50 [1] | Compound | IC50 [2] | IC50 [3]
3 µM | C=C1[C@H](C)CCC[C@]1(C)CC/C(C)=C/CC1=C(O)C(=O)C=C(OC)C1=O [METACHROMIN A] |  | 
3 µM | C=C1[C@H](C)CCC[C@]1(C)CC[C@@]1(C)C=Cc2c(O)c(OC)cc(OC)c2O1 [METACHROMIN B] |  | 
3 µM | COC1=CC(=O)C(O)=C(C/C=C(\C)CC[C@@]2(C)CCC=C(C)[C@H]2C)C1=O [METACHROMIN C] | 2 µg/mL (≈ 5.58 µM) | 0.92 µg/mL (≈ 2.57 µM)

From ChEMBL document CHEMBL1147317, “Metachromin C, a new cytotoxic sesquiterpenoid from the Okinawan marine sponge Hippospongia metachromia” (J Nat Prod, 1989)
